{
  "source": "patent US9554577B2",
  "about": "“Herbicidal formulation” (priority 2011, dated 2017)",
  "origin": "cited, not measured here",
  "key": {"[1]": {"conditions": "chlorinated hydrocarbons and aromatic solvents such as methylene chloride, acetone and xylene"}},
  "data": [
    {"smiles": "CCC(CC)Nc1c([N+](=O)[O-])cc(C)c(C)c1[N+](=O)[O-]", "note": "[Pendimethalin, n-(1-ethylpropyl)-3,4-dimethyl-2,6-dinitrobenzenamine]", "values": [
      {"measurement": "solubility in organic solvents", "setting": "[1]", "result": "soluble"},
      {"measurement": "stability under acidic and alkaline conditions", "result": "stable"}
    ]}
  ]
}
